Test results published in patent US20070238700A1, “N-PHENYL-1,1,1-TRIFLUOROMETHANESULFONAMIDE HYDRAZONE DERIVATIVE COMPOUNDS AND THEIR USAGE IN CONTROLLING PARASITES” (priority 2006, published 2007).
Read-outs that look alike come from different tables or passages of the source.

Assays:
Rhipicephalus sanguineus = test: Rapid screening protocol for topical application on brown dog ticks (% mortality); details: data from laboratory 1
Procedure: d) Rapid Screening Protocol for Topical Application on Brown Dog Ticks (Rhipicephalus sanguineus)
The aim of the test was to determine the presence of significant acaricidal activity in sample compounds or formulations when applied topically on brown dog ticks. A tick was defined as dead if it gave no apparent response when touched lightly and observed for 1 minute. To assess the experimental compound for acaricidal activity, a single dose level was chosen based on known results from previous experiments with a commercially available active reference compound. Both permethrin and fipronil were employed as reference compounds. The insect species tested was the Brown Dog Tick (Rhipicephalus sanguineus). Mixed sex adult ticks were used for tests. The strain used was cultured by von Berky Veterinary Services, Woody Point, QLD, AU and supplied as unfed adult ticks (mixed sex). Ticks were maintained in controlled conditions (temp. 18°±2° C., humidity 75±5% RH).
Test compounds (formulations or active ingredients) were stored in a refrigerator (5±1° C.) unless otherwise specified. Temperature was maintained at 25±1° C. and the humidity was ambient. The screening dose chosen was higher than that known to kill 90% of insects (LD90) using the reference compound. In the case of topical application of active compounds on adult ticks, the reference compound was fipronil and the dose chosen was 10 μg of active per tick (=10 μg of fipronil/1 μl of acetone). Ticks were each treated on the abdomen with 1 μL of a single dose level of test sample in acetone; ten ticks were treated with solvent only (acetone) in each test. Tests were replicated 4 times (total of 40 ticks treated). Ticks were held in recovery containers maintained under appropriate rearing conditions for 24 hours. Mortality resulting from the treatments was recorded at 24 hours. Pooled 24 hour mortality data were converted to percentages.

Ctenocephalides felis = system: Ctenocephalides felis
Procedure: b) Ctenocephalides felis Adulticide Assay: C. felis Single Dose Screen
Mortality of fleas was the primary endpoint in the assay. Fleas were considered dead if they didn't move or were on their sides and unable to walk or right themselves. […] The concentration chosen (1.26 μg/cm^2) was higher than that known to kill 90% of cat fleas (LC90) using the reference compound, permethrin.
The test species was the cat flea (Ctenocephalides felis). The strain used was obtained from external suppliers as pupae and held in the laboratory under testing conditions until the adults had emerged. Fifteen (15) fleas were used in a minimum of four replicates against a single concentration level (approximately 60 fleas). The insects were selected to be in the adult life stage, aged between 3 and 7 days post emergence.
The compounds to be tested were supplied as solids and were prepared in acetone as described below prior to testing. Samples were stored in a refrigerator (5±1° C.) unless otherwise specified.
During the mortality testing, the temperature was maintained at 25±1° C. Humidity was maintained at 75±5%. The base (area=159 mm^2) of a 100 mL glass Erlenmeyer (conical) flask provided the treatment surface. Flasks were pretreated with Coatasil™ glass treatment to maximise bio-availability of test compounds by preventing them from binding to glass the surface. The base of the 100 mL Erlenmeyer flask was treated with 0.5 mL of test sample in acetone and gently swirled. This volume was sufficient to cover the base of the flask. Flasks were left to dry for 24 hours before flea exposure.
Adult cat fleas were placed into a sorting chamber, which allowed fleas to jump into the Erlenmeyer flasks. Fifteen (15) adult cat fleas were collected in each flask. The top of the flasks were then covered in Parafilm™ and small holes were made to allow gas exchange. A 0.5 mL volume of acetone as a solvent control was applied to the base of an Erlenmeyer flask and the testing proceeded in the same manner described above. Cat fleas in the treatment containers were held under testing conditions for 8, 24 and/or 48 hours. Mortality was recorded at 8, 24, 8 and 24, or 24 and 48 hours Pooled 8, 24, 8 and 24, and 24 and 48 hour mortality data were converted to percentages and are summarized by Table 21, below.

| Structure (SMILES) | C. felis Mortality (%) 8 h (Ctenocephalides felis; 8 h, data from laboratory 1) [%] | C. felis Mortality (%) 24 h (Ctenocephalides felis; 24 h, data from laboratory 1) [%] | also measured |
| --- | --- | --- | --- |
| CC(=NN(Cc1ccccc1)c1ccccc1)c1cc(Cl)ccc1NS(=O)(=O)C(F)(F)F [Compound 22] |  |  | R. sanguineus Mortality (%) 24 h (Rhipicephalus sanguineus): 33^A %; C. felis Mortality (%) 8 h (Ctenocephalides felis): 98%; C. felis Mortality (%) 24 h (Ctenocephalides felis): 100% |
| CCC(=NN(Cc1ccccc1)c1ccccc1)c1cc(Cl)ccc1NS(=O)(=O)C(F)(F)F [Compound 24] |  |  | R. sanguineus Mortality (%) 24 h (Rhipicephalus sanguineus): 28^A %; C. felis Mortality (%) 8 h (Ctenocephalides felis): 100%; C. felis Mortality (%) 24 h (Ctenocephalides felis): 100% |
| CC(=Nn1cnc2ccccc2c1=O)c1cc(Cl)ccc1NS(=O)(=O)C(F)(F)F [Compound 186, N-[4-Chloro-2-(1-{4(3)-oxo-quinazolin-3-yl}imino)ethylphenyl]-trifluoromethanesulfonamide] |  |  | C. felis Mortality (%) 8 h (Ctenocephalides felis): 2%; C. felis Mortality (%) 24 h (Ctenocephalides felis): 12% |
| C/C(=N\N1C(=O)NC(C)(C)C1=O)c1cc(Cl)ccc1NS(=O)(=O)C(F)(F)F [Compound 187] | 5 | 19 |  |
| CC(=Nn1cnc2ccccc21)c1cc(Cl)ccc1NS(=O)(=O)C(F)(F)F [Compound 188] | 2 | 7 |  |
| CC(=Nn1cc2ccccc2n1)c1cc(Cl)ccc1NS(=O)(=O)C(F)(F)F [Compound 189] | 0 | 2 |  |
| CC(=NN(C)c1ncccn1)c1cc(Cl)ccc1NS(=O)(=O)C(F)(F)F [Compound 190] |  |  | C. felis Mortality (%) 8 h (Ctenocephalides felis): 2%; C. felis Mortality (%) 24 h (Ctenocephalides felis): 15% |
| CC(=NN1CCN(C)CC1)c1cc(Cl)ccc1NS(=O)(=O)C(F)(F)F [Compound 191] | 2 | 48 |  |
| CC(=Nn1c(C)n[nH]c1=O)c1cc(Cl)ccc1NS(=O)(=O)C(F)(F)F [Compound 192] | 3 | 5 |  |
| CC(=Nn1ncc2ccccc21)c1cc(Cl)ccc1NS(=O)(=O)C(F)(F)F [Compound 193] | 2 | 9 |  |
| CC(=NN(C)c1ccc(Cl)nn1)c1cc(Cl)ccc1NS(=O)(=O)C(F)(F)F [Compound 194] | 0 | 5 |  |
| CC(=NN(C)c1ccccn1)c1cc(Cl)ccc1NS(=O)(=O)C(F)(F)F [Compound 195] | 2 | 30 |  |
| CC(=NN(C)c1ccc(Cl)cn1)c1cc(Cl)ccc1NS(=O)(=O)C(F)(F)F [Compound 196] | 3 | 32 |  |
| CC(=NN(C)c1cccc(Cl)n1)c1cc(Cl)ccc1NS(=O)(=O)C(F)(F)F [Compound 197] | 7 | 23 |  |
| CC(=NN(C)c1ccc2ccccc2n1)c1cc(Cl)ccc1NS(=O)(=O)C(F)(F)F [Compound 198] | 2 | 25 |  |
| CC(=Nn1c(=O)[nH]nc(C)c1=O)c1cc(Cl)ccc1NS(=O)(=O)C(F)(F)F [Compound 199] | 3 | 3 |  |
| CCCN(N=C(C)c1cc(Cl)ccc1NS(=O)(=O)C(F)(F)F)c1cccc(Cl)c1Cl [Compound 200] | 2 | 58 |  |
| CC(=Nn1c(C)nc2ccccc2c1=O)c1cc(Cl)ccc1NS(=O)(=O)C(F)(F)F [Compound 201] | 2 | 10 |  |
| CC(=NN(CCC#N)CCC#N)c1cc(Cl)ccc1NS(=O)(=O)C(F)(F)F [Compound 202] | 3 | 24 |  |
| CC(=NN(C)c1ccccc1C(F)(F)F)c1cc(Cl)ccc1NS(=O)(=O)C(F)(F)F [Compound 204] | 6 | 11 |  |
| CN(N=C1CCc2cccc(NS(=O)(=O)C(F)(F)F)c21)c1ccccc1 [Compound 205] | 12 | 13 |  |

| Structure (SMILES) | C. felis Mortality (%) 8 h (Ctenocephalides felis; 8 h, data from laboratory 1) [%] | C. felis Mortality (%) 24 h (Ctenocephalides felis; 24 h, data from laboratory 1) [%] | also measured |
| --- | --- | --- | --- |
| CC(=NN(C)c1cnccn1)c1cc(Cl)ccc1NS(=O)(=O)C(F)(F)F [Compound 206] |  |  | C. felis Mortality (%) 8 h (Ctenocephalides felis): 7%; C. felis Mortality (%) 24 h (Ctenocephalides felis): 12% |
| C/C(=N\NC(=O)Nc1ccc(OC(F)(F)F)cc1)c1cc(Cl)ccc1NS(=O)(=O)C(F)(F)F [Compound 207] | 5 | 8 |  |
| C/C(=N\NC(=O)Nc1ccc(C(F)(F)F)cc1)c1cc(Cl)ccc1NS(=O)(=O)C(F)(F)F [Compound 208] | 8 | 18 |  |
| C/C(=N\N(C)c1nccc2ccccc12)c1cc(Cl)ccc1NS(=O)(=O)C(F)(F)F [Compound 209] | 7 | 18 |  |
| C/C(=N\N(C)c1cnc2ccccc2n1)c1cc(Cl)ccc1NS(=O)(=O)C(F)(F)F [Compound 210] | 4 | 17 |  |
| CCN(N=C(C)c1cc(Cl)ccc1NS(=O)(=O)C(F)(F)F)C1CCCC1 [Compound 212] |  |  | C. felis Mortality (%) 8 h (Ctenocephalides felis): 7%; C. felis Mortality (%) 24 h (Ctenocephalides felis): 59% |
| CCC(=NN(CC)C1CCCC1)c1cc(Cl)ccc1NS(=O)(=O)C(F)(F)F [Compound 214] | 7 | 61 |  |
| CCN(N=C(C)c1cc(Cl)ccc1NS(=O)(=O)C(F)(F)F)C1CCCCC1 [Compound 216] | 0 | 52 |  |
| CC/C(=N\N(C)C1CCCCC1)c1cc(Cl)ccc1NS(=O)(=O)C(F)(F)F [Compound 217] | 3 | 48 |  |
| CCC(=NN(CC)C1CCCCC1)c1cc(Cl)ccc1NS(=O)(=O)C(F)(F)F [Compound 218] | 5 | 62 |  |
| CN(N=C1CCCc2cccc(NS(=O)(=O)C(F)(F)F)c21)c1ccccc1 [Compound 219, N-[8-(N′-methyl-N′-phenyl)hydrazono-5,6,7,8-tetrahydro-naphthalen-1-yl]-trifluoromethanesulfonamide] |  |  | C. felis Mortality (%) 8 h (Ctenocephalides felis): 0%; C. felis Mortality (%) 24 h (Ctenocephalides felis): 2% |
| CCC(=O)N(CCC#N)/N=C(\C)c1cc(Cl)ccc1NS(=O)(=O)C(F)(F)F [Compound 225] | 2 | 73 |  |
| O=S(=O)(Nc1ccc(Cl)cc1C1=NN(c2ccccc2)CC1)C(F)(F)F [Compound 226] | 0 | 28 |  |
| O=S(=O)(Nc1ccc(Cl)cc1C1=NN(c2ccccc2F)CC1)C(F)(F)F [Compound 228] | 14 | 59 |  |
| O=S(=O)(Nc1ccc(Cl)cc1C1=NN(c2ccccc2)CC1)C(F)(F)F [Compound 229, N-[4-Chloro-2-(1-phenyl-4,5-dihydro-1H-pyrazol-3-yl)-phenyl]-trifluoromethanesulfonamide] |  |  | C. felis Mortality (%) 8 h (Ctenocephalides felis; 8 h): 18%; C. felis Mortality (%) 24 h (Ctenocephalides felis; 24 h): 37% |
| O=S(=O)(Nc1ccc(Cl)cc1-c1ccn(-c2ccccc2)n1)C(F)(F)F [Compound 230, N-[4-Chloro-2-[1-phenyl-1H-pyrazol-3-yl]-phenyl]-trifluoromethanesulfonamide] |  |  | C. felis Mortality (%) 8 h (Ctenocephalides felis; 8 h): 10%; C. felis Mortality (%) 24 h (Ctenocephalides felis; 24 h): 43% |
| O=S(=O)(Nc1ccc(Cl)cc1C1=NN(c2cccc(Cl)c2)CC1)C(F)(F)F [Compound 231] | 12 | 42 |  |
| O=S(=O)(Nc1ccc(Cl)cc1C1=NN(c2cccc(F)c2)CC1)C(F)(F)F [Compound 232] | 7 | 27 |  |
| O=S(=O)(Nc1ccc(Cl)cc1C1=NN(c2ccc(F)cc2)CC1)C(F)(F)F [Compound 233] | 9 | 28 |  |
| O=S(=O)(Nc1ccc(Cl)cc1C1=NN(c2ccc(Cl)cc2)CC1)C(F)(F)F [Compound 234] | 14 | 41 |  |
